Data taken from BindingDB's records for doi:10.1016/s0960-894x(01)00331-6 (Dupont Pharmaceuticals, 2001).

Target: T1, Gag-Pol polyprotein [588-1027]/[588-1147] (Human immunodeficiency virus 1, UniProt P04585)
T1 construct: 588-1027; 588-1147
Assay: HIV-1 RT Assay
Conditions: pH 8.2; 37 °C
Text: The IC50 of reverse transcriptase is the concentration that inhibits 50% of recombinant HIV-1 RT RNA-directed DNA polymerase activity in vitro.

`O=C1Nc2ccc(Cl)cc2[C@@](C#CC2CC2)(C(F)(F)F)[C@H]1NCc1ccccc1` [(3R,4R)-3-(benzylamino)-6-chloro-4-(2-cyclopropylethynyl)-4-(trifluoromethyl)-1,2,3,4-tetrahydroquinolin-2-one] showed an IC50 of over 2 µM.
`COC(=O)N[C@H]1C(=O)Nc2ccc(Cl)cc2[C@@]1(C#CC1CC1)C(F)(F)F` [methyl N-[(3R,4R)-6-chloro-4-(2-cyclopropylethynyl)-2-oxo-4-(trifluoromethyl)-1,2,3,4-tetrahydroquinolin-3-yl]carbamate] gave an IC50 of over 2 µM.
For `CC(C)=CCO[C@H]1C(=O)Nc2ccc(Cl)cc2[C@@]1(C#CC1CC1)C(F)(F)F` [(3R,4R)-6-chloro-4-(2-cyclopropylethynyl)-3-[(3-methylbut-2-en-1-yl)oxy]-4-(trifluoromethyl)-1,2,3,4-tetrahydroquinolin-2-one], the IC50 was over 2 µM.
`O=C1Nc2ccc(Cl)cc2[C@@](C#CC2CC2)(C(F)(F)F)[C@H]1O` [(3R,4R)-6-chloro-4-(2-cyclopropylethynyl)-3-hydroxy-4-(trifluoromethyl)-1,2,3,4-tetrahydroquinolin-2-one] gave an IC50 of over 2 µM.
Compound `CC(=O)N[C@H]1C(=O)Nc2ccc(Cl)cc2[C@@]1(C#CC1CC1)C(F)(F)F` [N-[(3R,4R)-6-chloro-4-(2-cyclopropylethynyl)-2-oxo-4-(trifluoromethyl)-1,2,3,4-tetrahydroquinolin-3-yl]acetamide] has an IC50 of over 2 µM.
